ChEMBL document CHEMBL1151139, “Bullatacin, bullatacinone, and squamone, a new bioactive acetogenin, from the bark of Annona squamosa” (J Nat Prod, 1990)
≈ marks a conversion by molar mass, not a printed value.

How the values were obtained:
MCF7 [1] = test: Cytotoxicity against human MCF7 cells; format: functional; settings: for EC50: Homo sapiens, MCF7, read-out: ED50 (the source's name)
HT-29 = test: Cytotoxicity against human HT-29 cells; format: functional; settings: read-out: ED50 (the source's name)
A549 = test: Cytotoxicity against human A549 cells; format: functional; settings: for EC50: Homo sapiens, A549, read-out: ED50 (the source's name)
[2] = Toxicity against brine shrimp; format: organism-based; settings: artemia, in vivo; read-out: ED50 (the source's name)
MCF7 [3] = test: Selectivity index, ratio of IC50 for human HT-29 cells to IC50 for human MCF7 cells; format: functional
MCF7 [4] = test: Selectivity index, ratio of IC50 for human A549 cells to IC50 for human MCF7 cells; format: functional

Row | SMILES | ED50 (MCF7 [1]) [×10⁻⁷ ug/ml] | EC50 (HT-29) [µg/mL] | ED50 (A549) [×10⁻⁴ ug/ml] | LC50 [2] [µg/mL] | EC50 (MCF7 [1]) [µg/mL] | Ratio ED50 (MCF7 [3]) | Ratio ED50 (MCF7 [4]) | EC50 (A549) [µg/mL]
1 | CCCCCCCCCC[C@H](O)[C@H]1CC[C@H]([C@H]2CC[C@H]([C@H](O)CCCCCCCCCC[C@@H]3CC(CC(C)=O)C(=O)O3)O2)O1 (some centres undefined) [BULLATACINONE] | <1 | < 0.001 | 1.44 | – | – | – | – | –
2 | CCCCCCCCCCCC[C@H](O)[C@@H]1CC[C@@H]([C@@H](O)CCCCCC(=O)CCCCC2CC(CC(C)=O)C(=O)O2)O1 (some centres undefined) [SQUAMONE] | – | 1.5 (≈ 2.52 µM) | – | 2.1 (≈ 3.53 µM) | – | – | – | –
3 | CCCCCCCCCCCC[C@H](O)[C@@H]1CC[C@@H]([C@@H](O)CCCCCC(O)CCCCC2CC(CC(C)O)C(=O)O2)O1 (some centres undefined) [TETRAHYDROSQUAMONE] | – | 0.298 (≈ 0.498 µM) | – | 2.7 (≈ 4.51 µM) | 0.00989 (≈ 0.0165 µM) | 100 | 100 | 0.141 (≈ 0.235 µM)
4 | COc1cccc2c1C(=O)c1c(O)c3c(c(O)c1C2=O)C[C@@](O)(C(=O)CO)C[C@@H]3O[C@H]1C[C@H](N)[C@H](O)[C@H](C)O1 [DOXORUBICIN] | – | 0.0301 (≈ 0.0554 µM) | – | – | 0.029 (≈ 0.0534 µM) | – | – | 0.00696 (≈ 0.0128 µM)
